Assay results reported in the NIST ThermoML archive (doi:10.1021/je800894y).
Numbers after ± are expanded uncertainties.

Details: Liquid; for viscosity: Vibrating wire viscometry; for mass density: vibrating-wire apparatus

CC(C)CCCC(C)CCCC(C)CCCCC(C)CCCC(C)CCCC(C)C (centres undefined) [2,6,10,15,19,23-hexamethyltetracosane]
Details | mass density [kg/m3] | viscosity [mPa·s]
303.18 K, 1070 kPa | 802 ± 10 | 22 ± 0.5
303.18 K, 5300 kPa | 803.5 ± 10 | 24.2 ± 0.5
303.18 K, 5740 kPa | 804.4 ± 10 | 24.4 ± 0.5
303.18 K, 15580 kPa | 806.9 ± 10 | 30.3 ± 0.6
303.18 K, 25530 kPa | 813.9 ± 10 | 36.9 ± 0.8
303.18 K, 35790 kPa | 826.5 ± 10 | 44.3 ± 0.9
303.18 K, 45770 kPa | 825.1 ± 10 | 54.6 ± 1.1
303.18 K, 55770 kPa | 825.9 ± 10 | 66.3 ± 1.4
348.13 K, 5270 kPa | 776.9 ± 1.6 | 5.59 ± 0.12
348.13 K, 5290 kPa | 777 ± 1.6 | 5.6 ± 0.12
348.13 K, 25490 kPa | 790.6 ± 1.6 | 7.79 ± 0.16
348.13 K, 56280 kPa | 807.7 ± 1.6 | 12.3 ± 0.3
348.13 K, 85860 kPa | 821.2 ± 1.6 | 18.4 ± 0.4
348.13 K, 115830 kPa | 832.6 ± 1.7 | 26.9 ± 0.6
348.13 K, 145930 kPa | 844.3 ± 1.7 | 38.7 ± 0.8
348.13 K, 175120 kPa | 843.2 ± 12 | 55.6 ± 1.2
398.15 K, 5160 kPa | 746.3 ± 1.5 | 2.17 ± 0.05
398.15 K, 5230 kPa | 746.4 ± 1.5 | 2.17 ± 0.05
398.15 K, 25310 kPa | 763.3 ± 1.5 | 2.89 ± 0.06
398.15 K, 56100 kPa | 783.5 ± 1.6 | 4.24 ± 0.09
398.15 K, 85890 kPa | 799.5 ± 1.6 | 5.88 ± 0.12
398.15 K, 115450 kPa | 812.6 ± 1.6 | 7.93 ± 0.17
398.15 K, 145820 kPa | 824.7 ± 1.7 | 10.6 ± 0.2
398.15 K, 176100 kPa | 835.4 ± 1.7 | 13.8 ± 0.3
448.25 K, 5580 kPa | 716.3 ± 1.4 | 1.17 ± 0.03
448.25 K, 5730 kPa | 716.5 ± 1.4 | 1.18 ± 0.03
448.25 K, 25470 kPa | 736.8 ± 1.5 | 1.54 ± 0.03
448.25 K, 55510 kPa | 759.9 ± 1.5 | 2.17 ± 0.05
448.25 K, 85620 kPa | 778.7 ± 1.6 | 2.89 ± 0.06
448.25 K, 115510 kPa | 793.3 ± 1.6 | 3.76 ± 0.08
448.25 K, 145580 kPa | 806.4 ± 1.6 | 4.78 ± 0.1
448.25 K, 176050 kPa | 818.2 ± 1.6 | 5.99 ± 0.13
